Results: publication PMC3445516 (PLoS ONE, 2012)
Like-named read-outs stand apart in the source and are kept apart here.

Key:
Test in all cases: Ambit kinase profiling, competition binding
CDK7 = biological target: T1, CDK7 (Homo sapiens, UniProt P50613)
T1 construct: purchased Ambit Biosciences (KINOMEscan)
Method: (§1) Also included in the kinase profile are four isoforms of PKC (δ, ε, η, θ) and eight isoforms of CAMKs (CAMKIα, δ, γ; CAMKIIα, β, δ, γ; CAMK4).
(§2) The global kinase profiling experiment was performed by Ambit Biosciences.

ROS1 = biological target: T2, ROS1 (Homo sapiens, UniProt P08922)
T2 construct: purchased Ambit Biosciences (KINOMEscan)
Method: as §1, §2

PCTK3 = biological target: T3, PCTK3 (Homo sapiens, UniProt Q07002)
T3 construct: purchased Ambit Biosciences (KINOMEscan)
T3 sequence (Q07002 whole entry): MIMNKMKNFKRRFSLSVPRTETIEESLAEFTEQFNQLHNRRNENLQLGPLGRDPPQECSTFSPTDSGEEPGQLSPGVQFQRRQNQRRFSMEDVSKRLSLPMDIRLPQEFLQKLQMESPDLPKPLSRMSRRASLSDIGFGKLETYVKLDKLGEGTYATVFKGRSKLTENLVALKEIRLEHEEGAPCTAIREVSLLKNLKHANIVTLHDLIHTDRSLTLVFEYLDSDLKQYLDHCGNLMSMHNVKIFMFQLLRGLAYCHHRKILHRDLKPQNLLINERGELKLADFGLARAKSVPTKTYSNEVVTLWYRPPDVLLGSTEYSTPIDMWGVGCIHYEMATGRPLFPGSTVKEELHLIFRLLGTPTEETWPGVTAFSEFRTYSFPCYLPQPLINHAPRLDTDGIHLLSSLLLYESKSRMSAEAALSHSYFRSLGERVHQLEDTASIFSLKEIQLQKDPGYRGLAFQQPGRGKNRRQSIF
Method: as §1, §2

CDC2L2 = biological target: T4, CDC2L2 (Homo sapiens, UniProt Q9UQ88)
T4 construct: purchased Ambit Biosciences (KINOMEscan)
T4 sequence (Q9UQ88 1-783): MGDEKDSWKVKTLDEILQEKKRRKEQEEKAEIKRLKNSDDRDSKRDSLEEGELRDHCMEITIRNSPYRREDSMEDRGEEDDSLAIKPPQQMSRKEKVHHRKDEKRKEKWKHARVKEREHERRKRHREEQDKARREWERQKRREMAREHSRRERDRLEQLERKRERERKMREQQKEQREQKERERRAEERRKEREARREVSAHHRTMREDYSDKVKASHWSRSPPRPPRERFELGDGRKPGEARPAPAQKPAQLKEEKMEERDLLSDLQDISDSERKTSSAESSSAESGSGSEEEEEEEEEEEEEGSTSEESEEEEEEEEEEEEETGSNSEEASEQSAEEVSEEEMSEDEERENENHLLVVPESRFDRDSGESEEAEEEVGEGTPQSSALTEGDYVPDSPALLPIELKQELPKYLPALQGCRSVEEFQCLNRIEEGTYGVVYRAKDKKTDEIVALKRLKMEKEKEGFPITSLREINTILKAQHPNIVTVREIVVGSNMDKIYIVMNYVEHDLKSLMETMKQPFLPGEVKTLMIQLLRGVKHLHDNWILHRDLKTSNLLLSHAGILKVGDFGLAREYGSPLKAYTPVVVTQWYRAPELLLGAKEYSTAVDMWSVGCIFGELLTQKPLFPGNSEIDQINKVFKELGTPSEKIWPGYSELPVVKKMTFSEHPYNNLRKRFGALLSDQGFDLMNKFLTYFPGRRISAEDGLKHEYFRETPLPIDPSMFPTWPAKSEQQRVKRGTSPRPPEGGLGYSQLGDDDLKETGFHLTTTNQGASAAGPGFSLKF
Method: as §1, §2

[1] = biological target: T5, TYK2 (JH2 domain-pseudokinase) (Homo sapiens, UniProt P29597); conditions: for % Competition: TYK2 (JH2 domain-pseudokinase), 10 µM
T5 construct: TYK2 (JH2 domain-pseudokinase); purchased Ambit Biosciences (KINOMEscan)
T5 sequence (P29597 556-888 limits assumed): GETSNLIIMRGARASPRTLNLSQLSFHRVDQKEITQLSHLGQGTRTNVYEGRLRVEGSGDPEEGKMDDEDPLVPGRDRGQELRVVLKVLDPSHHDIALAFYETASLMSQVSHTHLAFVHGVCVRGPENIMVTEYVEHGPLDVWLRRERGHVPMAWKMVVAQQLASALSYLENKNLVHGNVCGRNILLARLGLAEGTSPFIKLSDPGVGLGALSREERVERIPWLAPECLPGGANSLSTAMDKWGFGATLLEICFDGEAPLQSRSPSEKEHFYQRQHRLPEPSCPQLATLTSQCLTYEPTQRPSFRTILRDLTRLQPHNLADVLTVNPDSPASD
Method: as §1, §2

p38-alpha = biological target: T6, p38-alpha (Homo sapiens, UniProt Q16539); conditions: for % Competition: 10 µM
T6 construct: purchased Ambit Biosciences (KINOMEscan)
T6 sequence (Q16539 whole entry): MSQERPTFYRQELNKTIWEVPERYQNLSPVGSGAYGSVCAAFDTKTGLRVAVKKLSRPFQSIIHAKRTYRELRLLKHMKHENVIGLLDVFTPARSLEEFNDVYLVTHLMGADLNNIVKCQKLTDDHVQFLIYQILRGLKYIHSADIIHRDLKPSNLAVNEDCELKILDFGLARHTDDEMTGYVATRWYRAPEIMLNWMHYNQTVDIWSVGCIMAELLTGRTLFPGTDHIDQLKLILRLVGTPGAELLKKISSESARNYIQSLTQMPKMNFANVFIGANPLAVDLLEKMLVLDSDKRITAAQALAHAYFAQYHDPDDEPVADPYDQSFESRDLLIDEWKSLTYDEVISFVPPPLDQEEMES
Method: as §1, §2

JNK3 = biological target: T7, JNK3 (Homo sapiens, UniProt P53779); conditions: for % Competition: 10 µM
T7 construct: purchased Ambit Biosciences (KINOMEscan)
T7 sequence (P53779 whole entry): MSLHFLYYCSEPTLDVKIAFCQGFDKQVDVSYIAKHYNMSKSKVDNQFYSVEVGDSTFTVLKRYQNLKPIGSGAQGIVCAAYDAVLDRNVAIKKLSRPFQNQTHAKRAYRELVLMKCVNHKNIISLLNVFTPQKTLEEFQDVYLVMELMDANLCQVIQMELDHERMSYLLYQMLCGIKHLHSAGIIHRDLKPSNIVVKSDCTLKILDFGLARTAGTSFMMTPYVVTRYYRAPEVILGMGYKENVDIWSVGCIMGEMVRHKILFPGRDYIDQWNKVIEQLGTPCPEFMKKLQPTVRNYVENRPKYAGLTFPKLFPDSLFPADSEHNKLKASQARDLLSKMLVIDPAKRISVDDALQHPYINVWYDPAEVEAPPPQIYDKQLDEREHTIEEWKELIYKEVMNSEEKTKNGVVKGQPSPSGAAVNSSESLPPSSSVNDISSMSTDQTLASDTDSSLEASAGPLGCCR
Method: as §1, §2

TGFBR1 = biological target: T8, TGFBR1 (Homo sapiens, UniProt P36897)
T8 construct: purchased Ambit Biosciences (KINOMEscan)
T8 sequence (P36897 34-503): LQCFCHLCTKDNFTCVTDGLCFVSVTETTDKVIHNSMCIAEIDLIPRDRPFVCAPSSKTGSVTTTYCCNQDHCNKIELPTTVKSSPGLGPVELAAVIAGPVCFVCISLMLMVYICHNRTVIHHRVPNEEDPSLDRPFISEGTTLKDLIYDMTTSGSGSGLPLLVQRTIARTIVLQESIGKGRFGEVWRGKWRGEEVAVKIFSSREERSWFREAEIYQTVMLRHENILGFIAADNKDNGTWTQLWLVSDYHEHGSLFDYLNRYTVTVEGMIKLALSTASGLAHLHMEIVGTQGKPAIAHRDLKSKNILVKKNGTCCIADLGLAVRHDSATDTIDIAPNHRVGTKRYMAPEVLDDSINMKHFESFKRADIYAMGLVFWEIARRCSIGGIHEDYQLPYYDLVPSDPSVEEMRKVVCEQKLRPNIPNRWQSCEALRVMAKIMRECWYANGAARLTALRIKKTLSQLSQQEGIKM
Method: as §1, §2

MAP4K4 = biological target: T9, MAP4K4 (Homo sapiens, UniProt O95819)
T9 construct: purchased Ambit Biosciences (KINOMEscan)
T9 sequence (O95819 whole entry): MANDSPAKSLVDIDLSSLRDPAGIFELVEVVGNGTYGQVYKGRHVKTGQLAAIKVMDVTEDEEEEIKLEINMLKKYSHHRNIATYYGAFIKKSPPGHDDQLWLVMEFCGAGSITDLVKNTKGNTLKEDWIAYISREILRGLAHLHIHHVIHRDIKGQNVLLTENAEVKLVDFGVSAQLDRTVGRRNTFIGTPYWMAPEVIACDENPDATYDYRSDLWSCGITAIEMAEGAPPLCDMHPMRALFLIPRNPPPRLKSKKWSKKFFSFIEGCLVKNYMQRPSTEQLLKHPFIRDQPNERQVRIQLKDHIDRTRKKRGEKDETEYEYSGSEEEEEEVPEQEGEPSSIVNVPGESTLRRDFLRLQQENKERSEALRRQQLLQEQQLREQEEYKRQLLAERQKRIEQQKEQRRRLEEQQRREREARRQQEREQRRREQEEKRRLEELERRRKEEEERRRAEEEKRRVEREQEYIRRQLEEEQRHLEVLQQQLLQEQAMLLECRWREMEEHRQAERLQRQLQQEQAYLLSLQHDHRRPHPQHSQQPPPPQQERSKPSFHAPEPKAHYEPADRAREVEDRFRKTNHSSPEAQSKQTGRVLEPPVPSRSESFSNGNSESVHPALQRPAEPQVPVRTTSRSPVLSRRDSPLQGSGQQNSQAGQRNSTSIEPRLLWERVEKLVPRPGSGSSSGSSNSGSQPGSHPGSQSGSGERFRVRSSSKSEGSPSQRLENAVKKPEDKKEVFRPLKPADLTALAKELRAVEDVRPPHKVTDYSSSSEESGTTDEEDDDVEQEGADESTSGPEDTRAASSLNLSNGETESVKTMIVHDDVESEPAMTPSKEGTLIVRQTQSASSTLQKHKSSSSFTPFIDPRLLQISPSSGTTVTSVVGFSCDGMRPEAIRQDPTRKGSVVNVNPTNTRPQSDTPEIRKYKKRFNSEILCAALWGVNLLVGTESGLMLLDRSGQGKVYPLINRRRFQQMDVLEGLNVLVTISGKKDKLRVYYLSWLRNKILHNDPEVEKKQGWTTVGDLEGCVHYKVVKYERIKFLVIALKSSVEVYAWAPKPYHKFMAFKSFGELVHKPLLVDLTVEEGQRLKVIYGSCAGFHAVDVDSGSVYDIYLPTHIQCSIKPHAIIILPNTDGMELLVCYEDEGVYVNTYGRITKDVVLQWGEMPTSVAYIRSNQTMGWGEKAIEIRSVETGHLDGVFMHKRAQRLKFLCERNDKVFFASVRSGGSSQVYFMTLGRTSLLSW
Method: as §1, §2

STK16 = biological target: T10, STK16 (Homo sapiens, UniProt O75716)
T10 construct: purchased Ambit Biosciences (KINOMEscan)
T10 sequence (O75716 whole entry): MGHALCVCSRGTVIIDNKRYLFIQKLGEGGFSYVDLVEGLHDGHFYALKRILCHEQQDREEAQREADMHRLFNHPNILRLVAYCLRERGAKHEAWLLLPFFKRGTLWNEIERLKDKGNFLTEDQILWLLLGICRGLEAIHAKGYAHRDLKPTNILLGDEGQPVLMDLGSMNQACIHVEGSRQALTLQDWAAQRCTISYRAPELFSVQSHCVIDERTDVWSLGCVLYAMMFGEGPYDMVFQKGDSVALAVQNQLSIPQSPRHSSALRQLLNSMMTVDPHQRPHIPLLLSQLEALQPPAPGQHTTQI
Method: as §1, §2

T1 sequence (P50613 whole entry): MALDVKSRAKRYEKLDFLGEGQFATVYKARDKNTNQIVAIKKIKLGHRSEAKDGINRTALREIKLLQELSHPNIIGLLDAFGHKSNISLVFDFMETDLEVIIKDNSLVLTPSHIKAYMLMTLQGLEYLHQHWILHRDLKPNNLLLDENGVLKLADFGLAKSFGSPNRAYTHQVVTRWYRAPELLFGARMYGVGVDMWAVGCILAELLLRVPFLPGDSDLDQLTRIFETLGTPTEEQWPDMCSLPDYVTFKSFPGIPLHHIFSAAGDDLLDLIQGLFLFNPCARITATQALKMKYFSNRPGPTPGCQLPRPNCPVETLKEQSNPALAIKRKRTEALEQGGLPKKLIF

Fc1ccc(-c2c(-c3ccncc3)[nH]c3nccnc23)cc1 [Compound 122]
inhibition at 10 µM (CDK7; CDK7, 10 µM, read-out: % Competition): 100% | inhibition at 10 µM (ROS1; ROS1, 10 µM, read-out: % Competition): 80% | inhibition at 10 µM (PCTK3; PCTK3, 10 µM, read-out: % Competition): 77% | inhibition at 10 µM (CDC2L2; CDC2L2, 10 µM, read-out: % Competition): 92% | % Competition [1]: 78% | % Competition (p38-alpha): 100% | % Competition (JNK3): 88% | inhibition at 10 µM (TGFBR1; TGFBR1, 10 µM, read-out: % Competition): 91% | inhibition at 10 µM (MAP4K4; MAP4K4, 10 µM, read-out: % Competition): 84% | inhibition at 10 µM (STK16; STK16, 10 µM, read-out: % Competition): 96%

CC(O)CNc1cc(-c2[nH]c3cccnc3c2-c2ccc(F)cc2)ccn1 (stereo not drawn) [Compound 140]
inhibition at 10 µM (CDK7; read-out: % Competition): < 50% | inhibition at 10 µM (ROS1; read-out: % Competition): < 50% | inhibition at 10 µM (PCTK3; read-out: % Competition): < 50% | inhibition at 10 µM (CDC2L2; read-out: % Competition): < 50% | % Competition [1]: 92% | % Competition (p38-alpha): 100% | % Competition (JNK3): 83% | inhibition at 10 µM (TGFBR1; read-out: % Competition): < 50% | inhibition at 10 µM (MAP4K4; read-out: % Competition): < 50% | inhibition at 10 µM (STK16; read-out: % Competition): < 50%

Fc1ccc(-c2c(-c3ccncc3)[nH]c3nccnc23)cc1 [RO1155697-000-005]
inhibition at 10 µM (CDK7; CDK7, compound concentration 10 uM, read-out: Percent Competition): 100% | inhibition at 10 µM (ROS1; ROS1, compound concentration 10 uM, read-out: Percent Competition): 80% | inhibition at 10 µM (PCTK3; PCTK3, compound concentration 10 uM, read-out: Percent Competition): 77% | inhibition at 10 µM (CDC2L2; CDC2L2, compound concentration 10 uM, read-out: Percent Competition): 92% | Percent Competition ([1]; TYK2(JH2domain-pseudokinase), compound concentration 10 uM): 78% | Percent Competition (p38-alpha; compound concentration 10 uM): 100% | Percent Competition (JNK3; compound concentration 10 uM): 88% | inhibition at 10 µM (TGFBR1; TGFBR1, compound concentration 10 uM, read-out: Percent Competition): 91% | inhibition at 10 µM (MAP4K4; MAP4K4, compound concentration 10 uM, read-out: Percent Competition): 84% | inhibition at 10 µM (STK16; STK16, compound concentration 10 uM, read-out: Percent Competition): 96%
